“Also recorded” adds a separate entry of the source.
Legend:
Panx-1 = conditions: cited from earlier work; for IC50: Panx-1 blockers, reference compounds
Panx-1 channels [1] = target: T1, Panx-1 channels (Mus musculus, UniProt Q9JIP4); assay: Voltage clamp on Xenopus laevis oocytes expressing Panx-1 channels; assay type: cell-based; conditions: for % inhibition of Panx1-mediated membrane currents: Figure 4 dose-response plot, concentration not printed in the legend; for IC50: dose-response curves, Panx1-mediated membrane currents in oocytes
T1 construct: expressed in transfected cells; host or cells: Xenopus laevis oocytes injected with in vitro-transcribed mRNA

Panx-1 channels [2] = target: T1, Panx-1 channels; assay: as above; assay type: cell-based; conditions: for inhibition at 50 µM / I (%) inhibition of Panx-1 currents: voltage clamp, Xenopus laevis oocytes expressing Panx-1 channels, 50 µM; for inhibition at 50 µM: read-out: I (%) inhibition of Panx-1 currents; for classification as active or inactive Panx-1 blocker: grouping chosen for the virtual screening
Protocol: All new products were screened as Panx-1 blockers at the dose of 50 µM using the Voltage Clamp technique on Xenopus Laevis oocytes expressing Panx-1 channels. The membrane potential of the cells was held at -60 mV and voltage steps to +60 mV were applied to induce membrane currents. To verify that Panx-1 channels carried the currents, in each experiment 100 µM carbenoxolone (CBX) was applied. At this concentration, CBX is known to yield 100% inhibition of Panx-1 activity. If present, leak currents resistant to CBX were subtracted from the total current to assess % inhibition mediated by the tested compounds. Table 1 and Table 2 report the electrophysiological results of naphthalene-2-sulphonic acid derivatives bearing at position 5 an amino- (3a–e, 4 and 5) or amide group (7a–g, 8 and 9) and of compound 13.
Oocytes of Xenopus laevis are prepared as previously described in [39] where the oocytes are isolated from surgically removed ovary segments incubated in an Oocyte Ringe solution Ca2-free (OR2: in mM: 82.5 NaCl, 2.5 KCl, 1.0 MgCl2, […], 1.0 Na2HPO4 e 5.0 HEPES, pH 7.5) with 2 mg/mL of collagenase and antibiotics (10,000 U/mL penicillin and 10 mg/mL of streptomycin) stirred at room temperature for 3 h. After being washed with OR2, oocytes free of follicular cells and that have a uniform pigmentation are chosen and stored in OR2 for 18 °C.
Mouse pannexin1, in pCS2, was linearised with NotI. In vitro transcription was performed with the polymerase SP6, using the Message Machine kit (Ambion). mRNA was quantified by absorbance (260 nm), and the proportion of full-length transcripts was checked by agarose gel electrophoresis. In vitro-transcribed mRNA (~20 nL) was injected into Xenopus laevis oocytes.
Whole-cell membrane currents of oocytes were measured using a two-electrode voltage clamp (Gene Clamp 500B, Axon Instruments/Molecular Devices Sunnyvale, Union City, CA, USA). Glass pipettes were pulled using a P-97 Flaming/Brown type puller (Sutter, Novato, CA, USA). The recording chamber was perfused continuously with frog Ringer (OR) solution (in mM: 82.5 NaCl, 2.5 KCl, 1 CaCl2, 1 MgCl2, 1 Na2HPO4, and 5 HEPES, pH 7.5).
Membrane conductance was determined using voltage pulses, and the pulse-induced current amplitudes were divided by the amplitudes of the voltage steps. For calculation of % inhibition, leak currents were subtracted. Typically, leak currents after the interventions were smaller than at the beginning of the experiment and this smaller value was used for the subtraction to avoid overestimation of the inhibitory effect. For an independent measure of the leak current, oocytes at the end of the experiment were exposed to 100 µM carbenoxolone, which is known to close Panx1 channels 100%. Oocytes expressing Panx1 were held at −60 mV, and pulses to +60 mV were applied to transiently open the channels by means of the voltage gate. Pulses 5 s in duration were applied at 0.1 Hz for current and conductance measurements.

[3] = test system: oxaliplatin-induced thermal allodynia in mice; assay: Cold plate test in mouse model of oxaliplatin-induced neuropathic pain; assay type: in vivo; conditions: oxaliplatin-treated mice; for time of maximum anti-allodynic effect: 3 nmol intrathecally; for pain threshold (licking latency), Cold plate test: 1 nmol and 3 nmol intrathecally, vs oxaliplatin + vehicle
Protocol: The two selected Panx-1 blockers, 4 and 13, were tested in a mouse model of oxaliplatin-induced neuropathic pain that involves this channel. Oxaliplatin is a third-generation platinum-based chemotherapeutic agent that, similar to other platinum-based compounds, interferes with the proliferation of tumor cells, leading to cancer cell destruction […] Recent studies have highlighted the efficacy of selective Panx1 antagonists in […] evoked by repeated administrations of antineoplastic drug, making Panx1 a possible therapeutic target in reducing chemotherapeutic-induced neuropathic pain [16, 23]. In this experiment we tested the anti-hypersensitivity properties of two novel Panx1 antagonists in a mouse model of oxaliplatin-induced thermal allodynia. […] This time delay is reported here as licking latency (s). The two compounds were acutely injected intrathecally at 1 nmol and 3 nmol in oxaliplatin-treated animals. […] The effect recorded was dose-dependent (Figure 5b).
Eight-week-old male CD-1 mice (Envigo, Varese, Italy) weighing approximately 20–25 g at the beginning of the experimental procedure were used. Animals were housed in the Centro Stabulazione Animali da Laboratorio (CeSAL; University of Florence, Italy) and used at least 1 week after their arrival; 10 mice were housed per cage (size 26 cm × 41 cm). Animals were fed a standard laboratory diet and tap water ad libitum and kept at 23 ± 1 °C with a 12 h light/dark cycle (light at 7 a.m.).
Mice treated with oxaliplatin (Carbosynth, Pangbourne, UK; 2.4 mg kg^−1) were administered intraperitoneally (i.p.) for 2 weeks Oxaliplatin was dissolved in a 5% glucose solution. Control animals received an equivalent volume of vehicle. Behavioural tests were performed starting from day 14, when neuropathy was well established.
Compounds 4 and 13 were intrathecally (i.t.) injected in conscious mice as previously described. Compound 4 was dissolved in sterile saline solution while compound 13 was dissolved in a mixture consisting of PEG400, TWEEN 20 and sterile saline solution (1:1:3, respectively). Briefly, a 25 µL Hamilton syringe connected to a 30-gauge needle was intervertebrally inserted between the L4 and L5 region, and advanced 6 mm into the lumbar enlargement of the spinal cord. Behavioural measurements were performed before and 15 min, 30 min, 45 min, and 60 min after the administration of compounds.
Thermal allodynia was assessed using the Cold-plate test. With minimal animal-handler interaction, mice were taken from home-cages, and placed onto the surface of the cold-plate (Ugo Basile, Varese, Italy) maintained at a constant temperature of 4 ± 1 °C. Ambulation was restricted by a cylindrical plexiglas chamber (diameter: 10 cm, height: 15 cm), with open top. A timer controlled by foot peddle began timing response latency from the moment the mouse was placed onto the cold-plate. Pain-related behaviour (licking of the hind paw) was observed, and the time (seconds) of the first sign was recorded. The cut-off time of the latency of paw lifting or licking was set at 30 s.
Figure 5 Pain-relieving effect of (a) 4 and (b) 13 on oxaliplatin-induced thermal allodynia in mice. Cold plate test. […] Pain-related behavior (i.e., lifting and licking of the hind paw) was observed and the time (s) of the first sign was recorded. ** p < 0.01 vs. vehicle + vehicle treated animals; ^ p < 0.05 and ^^ p < 0.01 vs. oxaliplatin + vehicle treated animals. […]

T1 sequence (Q9JIP4 whole entry): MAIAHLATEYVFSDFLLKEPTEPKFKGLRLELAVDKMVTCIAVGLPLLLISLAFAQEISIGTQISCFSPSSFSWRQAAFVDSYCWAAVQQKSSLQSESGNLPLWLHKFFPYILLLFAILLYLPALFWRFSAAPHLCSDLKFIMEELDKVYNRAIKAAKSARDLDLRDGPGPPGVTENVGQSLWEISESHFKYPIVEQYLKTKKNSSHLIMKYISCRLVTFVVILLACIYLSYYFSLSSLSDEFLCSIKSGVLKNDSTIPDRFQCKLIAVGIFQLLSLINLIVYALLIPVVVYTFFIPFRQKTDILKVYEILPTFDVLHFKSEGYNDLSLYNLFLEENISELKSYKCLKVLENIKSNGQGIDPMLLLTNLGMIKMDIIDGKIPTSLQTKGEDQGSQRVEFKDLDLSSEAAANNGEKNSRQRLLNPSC

Compound	inhibition at 50 µM (Panx-1 channels [2]) [%]	melting point	also measured
CCN(Cc1cccc(S(=O)(=O)O)c1)c1ccc(C(=C2C=CC(=[N+](CC)Cc3cccc(S(=O)(=O)O)c3)C=C2)c2ccccc2S(=O)(=O)[O-])cc1 [Brilliant Blue FCF]			IC50 (Panx-1): 0.27 µM
CC1(C)[C@@H](OC(=O)CCC(=O)O)CC[C@]2(C)[C@H]3C(=O)C=C4[C@@H]5C[C@@](C)(C(=O)O)CC[C@]5(C)CC[C@@]4(C)[C@]3(C)CC[C@@H]12 [Carbenoxolone, carbenoxolone]			inhibition of Panx-1 activity (Panx-1; 100 µM carbenoxolone): 100%; IC50 (Panx-1): 10 µM; % inhibition of Panx1-mediated membrane currents (Panx-1 channels [1]): 100%
O=S(=O)(O)c1ccc2c(NCCCc3ccccc3)cccc2c1 [Compound 3c, 5-[(3-Phenylpropyl)amino]naphthalene-2-sulfonic acid]	66.7 ± 5.5		IC50 (Panx-1 channels [1]): 9 µM
O=C(O)c1ccc(CNc2cccc3cc(S(=O)(=O)O)ccc23)cc1 [Compound 4, 4-[(6-Sulfonaphthalen-1-yl)aminomethyl]benzoic Acid]	97 ± 1.5		time of maximum anti-allodynic effect [3]: 45 min; time after injection from which the enhancement of pain threshold is significant ([3]; intrathecal injection): 30 min; pain threshold (licking latency), Cold plate test [3]: significantly increase the mouse pain threshold; also recorded: significant enhancement of the pain threshold; IC50 (Panx-1 channels [1]): 8.8 µM
CCCCN(CCCC)S(=O)(=O)c1ccc(C(=O)Nc2cccc3cc(S(=O)(=O)O)ccc23)cc1 [Compound 7c, 5-[4-(N,N-dibutylsulfamoyl)benzamido]naphthalene-2-sulfonic acid]	67.8 ± 2.2		IC50 (Panx-1 channels [1]): 40.4 µM
O=C(Nc1cccc2cc(S(=O)(=O)O)ccc12)c1ccc(S(=O)(=O)N(Cc2ccccc2)Cc2ccccc2)cc1 [Compound 7d, 5-[4-(N,N-dibenzylsulfamoyl)benzamido]naphthalene-2-sulfonic acid]	75		I (%) inhibition of Panx-1 currents (Panx-1 channels [2]): 75.2 ± 5.90 (4) %; IC50 (Panx-1 channels [1]): 15.1 µM
O=C(O)c1ccc(CN(Cc2ccc(C(=O)O)cc2)S(=O)(=O)c2ccc(C(=O)O)cc2)cc1 [Compound 13, 4,4′-{{[(4-Carboxyphenyl)sulfonyl]azanediyl}bis(methylene)}dibenzoic acid]	94		time of maximum anti-allodynic effect [3]: 45 min; pain threshold (licking latency), Cold plate test [3]: significantly increase the mouse pain threshold; also recorded: significant increase of the mouse pain threshold; I (%) inhibition of Panx-1 currents (Panx-1 channels [2]): 93.7 ± 2.3%; % inhibition of Panx1-mediated membrane currents (Panx-1 channels [1]): 100%; IC50 (Panx-1 channels [1]): 1.2 µM
CCN(CC)S(=O)(=O)c1ccc(-n2ncc(C(=O)O)c2N)cc1 [Compound 19a, 5-Amino-1-(4-(N,N-diethylsulfamoyl)phenyl)-1H-pyrazole-4-carboxylic acid]	14.3 ± 7.4	240 °C (dec.)	
CCCN(CCC)S(=O)(=O)c1ccc(-n2ncc(C(=O)O)c2N)cc1 [Compound 19b, 5-Amino-1-(4-(N,N-dipropylsulfamoyl)phenyl)-1H-pyrazole-4-carboxylic acid]	21 ± 7.8	167 to 168 °C	
CCCNc1c(C(=O)O)cnn1-c1ccc(S(=O)(=O)N(CCC)CCC)cc1 [Compound 19c, 1-(4-(N,N-dipropylsulfamoyl)phenyl)-5-(propylamino)-1H-pyrazole-4-carboxylic acid]	28 ± 6.9	170 to 172 °C	
Nc1c(C(=O)O)cnn1-c1ccc(S(=O)(=O)NCc2ccccc2)cc1 [Compound 23, 5-Amino-1-(4-(N-benzylsulfamoyl)phenyl)-1H-pyrazole-4-carboxylic acid]	16.3 ± 6.4	207 to 210 °C	
Nc1c(C(=O)O)cnn1-c1ccc(S(=O)(=O)N(Cc2ccccc2)Cc2ccccc2)cc1 [Compound 24, 5-Amino-1-(4-(N,N-dibenzylsulfamoyl)phenyl)-1H-pyrazole-4-carboxylic acid]	42	168 to 170 °C	I (%) inhibition of Panx-1 currents (Panx-1 channels [2]): 42.7 ± 2.4 (4) %; classification as active or inactive Panx-1 blocker (Panx-1 channels [2]): inactive
Nc1c(C(=O)O)cnn1-c1ccc(S(=O)(=O)NCCc2ccccc2)cc1 [Compound 28, 5-Amino-1-(4-(N-phenethylsulfamoyl)phenyl)-1H-pyrazole-4-carboxylic acid]	22.7 ± 5.5	186 to 188 °C	
O=C(O)c1cnn(-c2ccc(S(=O)(=O)NCCc3ccccc3)cc2)c1NCCc1ccccc1 [Compound 29, 5-(Phenethylamino)-1-(4-(N-phenethylsulfamoyl)phenyl)-1H-pyrazole-4-carboxylic acid]	25.3 ± 0.9	105 to 107 °C	
Nc1c(C(=O)O)cnn1-c1ccc(S(=O)(=O)N(CCc2ccccc2)Cc2ccccc2)cc1 [Compound 30, 5-Amino-1-(4-(N-benzyl-N-phenethylsulfamoyl)phenyl)-1H-pyrazole-4-carboxylic acid]	30 ± 7.2	263 to 266 °C (dec.)	
O=C(O)c1cc([N+](=O)[O-])ccc1NCCCc1ccccc1 [NPPB, 5-nitro-2-(3-phenylpropylamino)benzoic acid]			IC50 (Panx-1): 50 µM
CCCN(CCC)S(=O)(=O)c1ccc(C(=O)O)cc1 [Probenecid, reference compound]	29		IC50 (Panx-1): 150 µM; classification as active or inactive Panx-1 blocker (Panx-1 channels [2]): inactive

Source: article PMC9103715, “New Panx-1 Blockers: Synthesis, Biological Evaluation and Molecular Dynamic Studies” (International Journal of Molecular Sciences, 2022)
